# Reference: patent publication US7405222B2, “Methods and compositions for treatment of erectile dysfunction” (Modular Properties, Ltd., priority 2002, dated 2008)
# Tests used:
# [1] = test system: male erectile dysfunction; conditions: monotherapy or combination as stated; cited from earlier work
# [2] = Text: Suitable pharmaceutical vehicles are well known to those skilled in the art and are described in several manuals, including Remington's Pharmaceutical Sciences, 15th edition. […] Similarly, formulations containing PGE1, papaverine, phentolamine and atropine, should be kept under refrigeration.
# [3] = test system: male erectile dysfunction; conditions: in vivo; cited from earlier work
# [4] = in vivo; cited from earlier work
# [5] = test system: male erectile dysfunction; conditions: intranasal; cited from earlier work
structure (smiles),measurement,setting,value
COc1ccc(Cc2nccc3cc(OC)c(OC)cc23)cc1OC [papaverine],erectile response,[1],unpredictable response
"Cc1ccc(N(CC2=NCCN2)c2cccc(O)c2)cc1 [Phentolamine, phentolamine]",erectile response,[1],does not reliably produce an erection sufficient for intercourse
"CCCCC[C@H](O)/C=C/[C@H]1[C@H](O)CC(=O)[C@@H]1CCCCCCC(=O)O [PGE1, Prostaglandin E1]",stability in storage,[2],not stable in water at room temperature
same,subjects with significant pain,[3],up to 40%
same,half life,[4],short half life compared with papaverine and phentolamine
CCCc1nn(C)c2c(=O)[nH]c(-c3cc(S(=O)(=O)N4CCN(C)CC4)ccc3OCC)nc12 [sildenafil],time to response in producing an erection,[5],within five minutes
